Drawing on PubChem BioAssay AID179 (DTP/NCI, 2004), this text covers EC50, IC50 and outcome for 74 molecules.

Calls of active or inactive are those of the source.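 How the source made its calls: active means compounds giving half or more protection of infected cells from virus-caused growth loss, again on retest; inactive means the rest.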

This test relates to CEM cells HIV-1 protection, formazan growth assay. Briefly: NCI AIDS Antiviral Assay. The settings on record: for IC50: measured here: growth of uninfected CEM cells. Summed up: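 Human CEM cells, uninfected and HIV-1-infected, exposed to five drug concentrations; growth measured by soluble formazan assay and scored as percent protection from infection, with protecting compounds retested.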

The term EC50 denotes the concentration at which the effect is half-maximal. The term IC50 denotes the concentration at which inhibition is half-maximal. Take `CC(=O)N1N=C(c2ccc(N=Nc3c(C)nn(-c4ccccc4)c3C)cc2)OC1c1ccc(Cl)cc1` (stereo unspecified): the EC50 was more than 18.6 µM and the IC50 was more than 18.6 µM.

Regarding `CCC(C)C(=O)c1c(O)c(C/C=C(\C)CCC=C(C)C)c(O)c2c(C(O)CC)cc(=O)oc12` (stereo unspecified), the EC50 was more than 200 µM and the IC50 amounted to 1.55 µM.

As to `CO/C(=N\N=C(/c1ccccc1)C(F)(F)F)c1ccncc1`, the EC50 is more than 200 µM and the IC50 was determined as 27.5 µM.

As to `C=C[C@@H](C)[C@@H](O)c1c(O)c2c(c3c(CCC)cc(=O)oc13)OC(C)(C)C=C2`, the EC50 is more than 200 µM and the IC50 came out at 10.7 µM.

Regarding `N[C@@H](CSS[C@H](C(=O)O)[C@@H](SSC[C@H](N)C(=O)O)C(=O)O)C(=O)O`, the EC50 is more than 200 µM and the IC50 worked out at 35.5 µM.

For `COc1ccc2nc3cc([N+](=O)[O-])ccc3c(NCCCN(C)C)c2c1`, the EC50 was more than 2 µM and the IC50 amounted to 0.38 µM.

Consider `CC1Cn2c(=O)[nH]c3cccc(c32)NC1=O` (stereo unspecified), for which the EC50 is more than 200 µM and the IC50 came out at 44.7 µM.

Consider `COc1cc(C2=NC(C(C)C)CO2)c(OC)c(OC)c1OC` (stereo unspecified), for which the EC50 is more than 43.7 µM and the IC50 was more than 43.7 µM.

As for `CC(=O)Nc1ccc(S2=Nc3ccccc3S2)cc1` (stereo unspecified), the 50% effective concentration (EC50) was more than 49 µM and the IC50 came to 16.2 µM.

Turning to `COC(=O)c1cc2ccc(OC(C)=O)c(OC(C)=O)c2cn1`, the EC50 is more than 166 µM and the IC50 stood at 0.851 µM.

Turning to `CC1=NN2C(=N)/C(=C/c3ccccc3)C(=O)N=C2S1`, the EC50 is more than 200 µM and the half-maximal inhibitory concentration (IC50) was more than 200 µM.

In the case of `CC(C)N(CC(OC(=O)OC(C)(C)C)c1cc(OCc2ccccc2)c(OCc2ccccc2)cc1[N+](=O)[O-])C(=O)OC(C)(C)C` (stereo unspecified), the EC50 was more than 100 µM and the IC50 was found to be 30.2 µM.

On to `CCOC(=O)/C(=C\c1ccc(Br)cc1)[Se]c1ccccc1`, for which the EC50 is more than 63.1 µM and the IC50 was more than 63.1 µM.

As to `CCC1(CCC#N)CCC(N)=CC1=O` (stereo unspecified), the EC50 is more than 200 µM and the IC50 is more than 200 µM.

Turning to `NC(=O)C(Cc1ccccc1)NC(=O)c1ccccc1SC(=O)CCCC[n+]1ccccc1` (stereo unspecified), the EC50 was more than 200 µM and the IC50 is 4.47 µM.

On to `Cc1cc(NS(=O)(=O)c2ccc(Nc3c4ccccc4nc4c(C(=O)O)cccc34)cc2)no1`, for which the EC50 is more than 200 µM and the IC50 stood at 178 µM.

Regarding `Cc1cccc(NC(=O)CSc2nnc(-c3ccc(N=Cc4ccc(Cl)cc4)cc3)o2)c1`, the EC50 is more than 21.4 µM and the IC50 was more than 21.4 µM.

Regarding `COc1ccc(C(=O)C2COC(=O)C2=O)cc1OC` (stereo unspecified), the EC50 is more than 200 µM and the IC50 was more than 200 µM.

Regarding `c1ccc2c(c1)nc1n2CSC1`, the outcome was inactive.

For `Clc1nnc(-c2ccccc2)s1`, the EC50 was more than 200 µM and the half-maximal inhibitory concentration (IC50) came out at 87.1 µM.

Take `N#Cc1snc2sc(=O)sc12`: the EC50 was more than 112 µM and the IC50 came to 8.71 µM.

Regarding `COC(=O)[C@H]1C[C@H]1NC(=O)C(CC(=O)OCc1ccccc1)NC(=O)OCc1ccccc1` (stereo partly specified), the EC50 was more than 200 µM and the IC50 came out at 79.4 µM.

In the case of `O=C1CNC(=O)c2[nH]cnc2N1`, the outcome was inactive.

Turning to `CCCOc1cnc([C@H]2CCC3[C@@H]4CC=C5C[C@@H](OC(C)=O)CC[C@]5(C)C4CC[C@@]32C)s1` (stereo partly specified), the EC50 was more than 55 µM and the IC50 was more than 55 µM.

Regarding `CC(C)(C)C1CCC2c3c([nH]c4ccccc34)C3C(=O)N(c4ccc5c(c4)C(=O)c4ccccc4C5=O)C(=O)C3C2C1` (stereo unspecified), the EC50 was more than 200 µM and the IC50 is more than 200 µM.

`CCc1cc[c]([Sb](=[O])([OH])[OH])cc1`: the outcome was inactive.

Take `CCOC(=O)C(NC(=O)CC)(Nc1ccc(S(=O)(=O)Nc2ccc(OC)nn2)cc1)C(F)(F)F` (stereo unspecified): the EC50 was more than 200 µM and the IC50 is more than 200 µM.

For `CC(C)(C)c1cc(/C=C\C(=O)c2ccc([N+](=O)[O-])cc2)cc(C(C)(C)C)c1O`, the EC50 is more than 10 µM and the IC50 was more than 10 µM.

Regarding `Cn1c(=O)c2c(ncn2CC(=O)NC23CC4CC(CC(C4)C2)C3)n(C)c1=O`, the result was inactive.

On to `Cc1cc(N(CCC#N)CCC#N)ccc1N=Nc1ccc(S(N)(=O)=O)cc1`, for which the EC50 was more than 170 µM and the IC50 was more than 170 µM.

Take `CCC[CH2][Sn]([Cl])([CH2]CCC)[CH2]CCC`: the outcome was inactive.

For the molecule `NC(=Nc1ccc(Br)cc1)/N=C(/N)Nc1cccc(S(=O)(=O)Nc2ncc(Cl)cn2)c1`, the EC50 was more than 200 µM and the IC50 is more than 200 µM.

For the molecule `O=[N+]([O-])c1c(F)c(F)c2c(c1F)Nc1ccccc1S2`, the EC50 was more than 200 µM and the half-inhibitory concentration (IC50) is 3.02 µM.

Turning to `CC(C)(O)S(=O)(=O)O`, the EC50 was more than 200 µM and the IC50 was more than 200 µM.

As for `Cc1cc(C)c(-n2[nH]c(=O)n(C)c2=O)c(C)c1`, the EC50 was more than 200 µM and the IC50 is more than 200 µM.

Consider `Nc1n(CC(=O)c2ccccc2)nc2sc(-c3ccccc3)n[n+]12`, for which the EC50 is more than 200 µM and the IC50 turned out to be 10.2 µM.

Turning to `[N-]=[N+]=C1C(=O)C2CC3CC(C2)CC1C3`, the EC50 is more than 191 µM and the IC50 is more than 191 µM.

Take `COc1ccc(-c2cc3cc(Cl)cc(Cl)c3oc2=O)cc1OC`: the EC50 is more than 200 µM and the IC50 worked out at 186 µM.

For `COc1cc(CC(C)=O)cc(OC)c1`, the EC50 was more than 200 µM and the IC50 turned out to be 95.5 µM.

As for `CCO[C@]12C[C@H](OC)[C@@]3(O)CC(C1[C@H]3OCc1ccccc1)C13C4C2[C@H](OC)C1[C@](COC)(CN4CC)[C@H](O)C[C@@H]3OC` (stereo partly specified), the EC50 is 17 µM and the IC50 turned out to be 117 µM.

`Cc1cccc(C)c1NC(=O)CCC/C(CC(=O)c1ccc(F)cc1)=N\NC(=O)C(=O)NN`: the EC50 was more than 148 µM and the IC50 is more than 148 µM.

For `COC(=O)[C@]1(C)CCC[C@]2(C)c3cc(Br)c(C(C)C)cc3CC[C@H]12`, the EC50 was more than 100 µM and the IC50 was more than 100 µM.

`Nc1nc(N)c2nc(-c3ccccc3)c(N)nc2n1`: the outcome was inactive.

Regarding `CC1OC(n2cc(I)c(=O)[nH]c2=O)C=CC1=O` (stereo unspecified), the EC50 was more than 347 µM and the IC50 stood at 2.14 µM.

For `[N-]=[N+]=NC1=C(N=[N+]=[N-])c2cccc3cccc(c23)C1=O`, the result was inactive.

`[N-]=[N+]=NC1=CC(=O)c2cccc3cccc1c23`: the EC50 is more than 75.9 µM and the IC50 is 6.92 µM.

For the molecule `COc1ccc(/C=c2\[nH]c3nc(=O)c(N4CCOCC4)c(N)n3c2=O)cc1`, the EC50 was more than 200 µM and the IC50 is more than 200 µM.

As to `COc1ccc(N=Nc2c(-c3c(OC)cc4occc4c3OC)[nH]c(=O)c(C#N)c2C)cc1`, the EC50 was more than 200 µM and the IC50 worked out at 120 µM.

Regarding `CCC12C=C(C(=O)OC)N3c4ccccc4C4CCN(CCC1)C2C43` (stereo unspecified), the outcome was inactive.

`Cc1noc(C)c1CCCOC1COc2ccccc2OCCOCCOc2ccccc2OC1`: the EC50 is more than 100 µM and the IC50 is more than 100 µM.

As for `O=C1C(NS(=O)(=O)c2ccccc2)=C(N(Cc2ccccc2)Cc2ccccc2)C(=O)c2ccccc21`, the EC50 was more than 200 µM and the IC50 worked out at 72.4 µM.

For `Cc1ccccc1NC(=O)/C=N/O`, the outcome was inactive.

With `O=S(=O)(O)c1cc(N=Nc2ccc(/C=C/c3ccc(N=Nc4cc(S(=O)(=O)O)c5cccnc5c4O)cc3)cc2)c(O)c2ncccc12`, the EC50 is 3.98 µM and the IC50 was 93.3 µM.

As for `Cc1cccc2c1Oc1cc(Cl)ccc1C2NC(=O)CCN1CCCCC1` (stereo unspecified), the EC50 was more than 200 µM and the IC50 was 11.2 µM.

`Cc1nc2c(N)n[nH]c(=O)n2n1`: the EC50 is more than 200 µM and the IC50 was more than 200 µM.

As to `CCCC[Si](CCCC)(CCCC)O[C@@H](/C=C/C(=O)OCC)[C@H](Cc1ccccc1)O[Si](CCCC)(CCCC)CCCC`, the EC50 was more than 200 µM and the IC50 is more than 200 µM.

`CCOC(=O)/C(O)=C1\C(=O)N(C)C(=O)C1c1ccc(OC)c(OC)c1` (stereo unspecified): the outcome was inactive.

For `C/C=C1\CC2C(=O)CCC2C2c3ccccc3OC12` (stereo unspecified), the EC50 is more than 200 µM and the IC50 was more than 200 µM.

As to `CCOC(=O)C1=C(O)c2ccc(C)cc2C(=O)C1=O`, the EC50 is more than 955 µM and the IC50 amounted to 324 µM.

Take `CSC(=O)c1sc(SC)[n+](-c2ccccc2)c1O`: the EC50 was more than 200 µM and the IC50 is 10.2 µM.

Consider `C/C(=C\CNc1nc(Cl)nc2nc[nH]c12)CO`, for which the EC50 is more than 200 µM and the IC50 turned out to be 148 µM.

For `O=C1OC(C2Cc3ccc4c(c3C2=O)CCC4)c2ccccc21` (stereo unspecified), the EC50 was more than 200 µM and the IC50 was found to be 81.3 µM.

In the case of `COc1ccc(O)c(/C(C)=N/NC(=S)N(C)C)c1`, the EC50 was more than 200 µM and the IC50 came to 10.7 µM.

As for `O=C(O)C(=C\c1ccc2c(c1)OCO2)/C(=C/c1ccc2c(c1)OCO2)C(=O)O`, the result was inactive.

`COc1cc(/C=C2/C(=O)N=C(NC(C)=O)N2C)ccc1OC(C)=O`: the EC50 is more than 200 µM and the IC50 was more than 200 µM.

As for `O=c1[nH]c2cc(Cl)c(Br)cc2o1`, the EC50 is 112 µM and the IC50 stood at 204 µM.

Take `O=C(N/N=C\c1ccc[nH]1)c1ccncc1`: the EC50 is more than 200 µM and the IC50 was more than 200 µM.

Turning to `CSc1c(C#N)c(=O)n(N)c2c1c(C)nn2-c1ccccc1`, the EC50 was more than 200 µM and the IC50 stood at 26.9 µM.

Regarding `CNc1ccc(C=C2c3ccccc3-c3ccccc32)cc1`, the EC50 is more than 13.2 µM and the IC50 stood at 4.79 µM.

In the case of `CC1(C)OC2OC(COC(=O)c3ccccc3)C(=O)C2O1` (stereo unspecified), the EC50 was more than 200 µM and the IC50 turned out to be 13.8 µM.

Turning to `CCOC(=O)/C(C#N)=C/c1[nH]c(C)c(C)c1C`, the outcome was inactive.

Take `CC1(C)CCCCCC(C)(CCCCCCCCCCCO)C1=O` (stereo unspecified): the EC50 was more than 200 µM and the IC50 was determined as 30.2 µM.

For `CC1(C)O[C@@H]2[C@H](O1)C(=O)O[C@@H]2CO`, the EC50 was more than 200 µM and the IC50 is more than 200 µM.

Turning to `CCOC(=O)/C(C(N)=O)=C(/O)c1cnccn1`, the EC50 was more than 200 µM and the IC50 was more than 200 µM.
